# Test results published in patent publication US20100160438A1, “NOVEL USE OF A NUTRACEUTICAL COMPOSITION IN ANIMAL FEED” (priority 2006, published 2010).
# Legend:
# [1] = test system: ileo-rectal anastomosed piglets; experiment: ileal apparent digestibility of nitrogen, energy and amino acids in ileo-rectal anastomosed piglets; type: in vivo, Large White×Landrace×Piétrain piglets; conditions: for ileal apparent lysine digestibility / ileal apparent threonine digestibility: mean ± σ
# Method: Ten Large White×Landrace×Piétrain piglets were used. The animals were obtained from the GAEC Leclerc, F-68150 Ostheim and were 60 days old at the beginning of the experiment.
# Each animal was subjected to an ileo-rectal anastomosis according to the techniques described by Laplace et al. (1994). After surgery piglets were housed individually in stainless-steel metabolic cages in an animal room under controlled temperature (22° C.), humidity (50%), ventilation (1100 m3/h) and lighting (12 hours light/12 hours darkness cycle). […] Meanwhile they were fed ad libitum a vegetal based diet for piglets and had free access to tap water.
# During the experimental period, piglets were fed each and alternatively the vegetal based diet supplemented or not with 0.5% benzoic acid.
# An indigestible tracer, chromium oxide, was added at a concentration of 0.4% to all the diets in order to measure ileal apparent digestibility.
# The experience was composed of 2 periods of 12 days each divided in 10 adaptation days and in 2 ileal content sampling days.
# Each animal was fed alternatively with each diet, so that each diet was tested 10 times.
# For the digestibility estimations, samples of ileal content were collected daily, during the 2 sampling days, from 8 AM to 3 PM, as soon as they were produced. Immediately after each sampling, the collected contents were weighed and frozen at −80° C. All the daily samples from the same piglet were bulked. Before analysis the samples were freeze dried and grounded to a fine powder. A total of […] samples were obtained for each diet.
# The dry matter contents of the freeze-dried samples were determined after drying overnight at 105° C., 20 g of the diets and 15 g of the ileal samples, according to the standard Association of Official Analytical Chemists (AOAC) procedure (1990).
# The diets and ileal samples chromium oxide levels were determined by inductively coupled plasma-atomic emission spectrometry (ICP) after mineralization at 350° C. during 20 min with oxidant reagent.
# Total energy levels were determined on the freeze-dried diets and ileal contents using a calorimeter IKA C7000.
# Total nitrogen concentrations were determined on the freeze-dried diets and ileal contents using a nitrogen analyzer LECO FP-428.
# Total amino acids were determined after an acidic hydrolysis on the freeze-dried diets and intestinal contents. Tryptophan analysis was omitted. Cys and Met were analyzed as cysteic acid and methionine sulfone after oxidation with formic acid and hydrogen peroxide followed by an acidic hydrolysis at 110° C. with 6 N HCl. All the other amino acids were analyzed after an acidic hydrolysis at 110° C. with 6 N HCl.
# Individual amino acid concentrations were measured after derivation using Waters AccQ.Fluor reagent and quantified by reversed-phase HPLC by fluorescence detection after elution on a Pico.Tag C18 column.
# Correcting with the dry matter, the chromium oxide and the diet tested parameter concentrations, all the tested parameter levels of the freeze-dried ileal contents were expressed in % apparent digestibility using the following formula:
# [formula] • Ci=parameter concentration (% dry matter) in the ileal content • Cd=parameter concentration (% dry matter) in the diet • Mi=chromium oxide concentration (% dry matter) in the ileal content • Md=chromium oxide concentration (% dry matter) in the diet
# For each test group, statistic analysis of the data involved the calculation of the mean and standard deviation of the mean as well as an analysis of variance followed by Student's “t” test to assess the significance of group differences between group A and benzoic acid supplemented group B for a probability of 10% for the amino acids and 5% for nitrogen and energy.
# piglets = experiment: animal health status controlled daily during the feeding trial; type: in vivo, Large White×Landrace×Piétrain piglets; conditions: piglets fed alternately diet with or without 0.5% benzoic acid, 2 periods of 12 days
# Description: The animal health status was controlled daily.
# At the beginning of the study all the piglets had recovered from the anesthesia and the surgery. […] All the feedings and all the sampling could be achieved.
# [2] = 0.5% benzoic acid in diet vs non-supplemented diet, statistically non-significant (p<0.10)
# [3] = 0.5% benzoic acid in diet vs non-supplemented diet, statistically significant (p<0.05)
# [4] = 0.5% benzoic acid in diet vs non-supplemented diet, statistically significant (p<0.10)
# [5] = piglets, Benzoic acid 0.5% in diet
# [6] = piglets, diet supplemented with 0.5% benzoic acid, mean ± SD
# [7] = piglets, diet supplemented with 0.5% benzoic acid
# [8] = piglets, diet supplemented with 0.5% benzoic acid, listed as Benzoic acid
smiles,measurement,setting,value
O=C(O)c1ccccc1 [benzoic acid],increase of ileal apparent sulfured amino acids digestibility compared to the control group,[1]; [2],2.9%
same,increase of ileal apparent threonine digestibility compared to the control group,[1]; [2],2.7%
same,increase of ileal apparent energy digestibility compared to the control group,[1]; [3],4.4%
same,increase of ileal apparent total nitrogen digestibility compared to the control group,[1]; [3],5.3%
same,increase of ileal apparent branched chain amino acids digestibility compared to the control group,[1]; [4],2.9%
same,increase of ileal apparent essential amino acids digestibility compared to the control group,[1]; [4],2.9%
same,increase of ileal apparent lysine digestibility compared to the control group,[1]; [4],3.5%
same,increase of ileal apparent total amino acids digestibility compared to the control group,[1]; [4],2.9%
same,"Mean digestibility ± σ, Ala (ileal apparent)",[1]; [5],75.3 ± 3.7%
same,"Mean digestibility ± σ, Arg (ileal apparent)",[1]; [5],87.0 ± 1.8%
same,"Mean digestibility ± σ, Asp + Asn (ileal apparent)",[1]; [5],79.1 ± 3.2%
same,"Mean digestibility ± σ, Cys (ileal apparent)",[1]; [5],79.7 ± 4.4%
same,"Mean digestibility ± σ, Glu + Gln (ileal apparent)",[1]; [5],86.7 ± 2.1%
same,"Mean digestibility ± σ, Gly (ileal apparent)",[1]; [5],75.1 ± 4.4%
same,"Mean digestibility ± σ, His (ileal apparent)",[1]; [5],86.4 ± 2.5%
same,"Mean digestibility ± σ, Hyp (ileal apparent)",[1]; [5],41.4 ± 13.4%
same,"Mean digestibility ± σ, Ile (ileal apparent)",[1]; [5],81.5 ± 3.6%
same,"Mean digestibility ± σ, Leu (ileal apparent)",[1]; [5],84.5 ± 2.4%
same,"Mean digestibility ± σ, Met (ileal apparent)",[1]; [5],80.7 ± 3.5%
same,"Mean digestibility ± σ, Phe (ileal apparent)",[1]; [5],84.5 ± 2.3%
same,"Mean digestibility ± σ, Pro (ileal apparent)",[1]; [5],85.8 ± 2.4%
same,"Mean digestibility ± σ, Ser (ileal apparent)",[1]; [5],82.6 ± 2.9%
same,"Mean digestibility ± σ, Tyr (ileal apparent)",[1]; [5],80.8 ± 2.8%
same,"Mean digestibility ± σ, Val (ileal apparent)",[1]; [5],79.5 ± 3.6%
same,ileal apparent branched chain amino acids digestibility,[1]; [6],82.7±2.8%
same,ileal apparent energy digestibility,[1]; [6],72.6±4.7%
same,ileal apparent essential amino acids digestibility,[1]; [6],82.7±2.6%
same,ileal apparent sulfured amino acids digestibility,[1]; [6],80.1±3.5%
same,ileal apparent total amino acids digestibility,[1]; [6],82.0±2.7%
same,ileal apparent total nitrogen digestibility,[1]; [6],77.7±3.1%
same,ileal apparent lysine digestibility,[1]; [7],82.3±2.8%
same,ileal apparent threonine digestibility,[1]; [7],78.0±3.9%
same,ileal apparent lysine digestibility,[1]; [8],82.3 ± 2.8%
same,ileal apparent threonine digestibility,[1]; [8],78.0 ± 3.9%
same,symptoms of illness or toxicosis,piglets,"None of the animals showed during the experimental period, any symptoms of illness or toxicosis"
